Data from US20250002487A1, “HETEROCYCLIC COMPOUNDS AND USES THEREOF” (Ventus Therapeutics U.S., Inc., priority 2021, published 2025).
pIC50: −log10 of the molar value.

Each molecule was assayed against human-cGAS (h-cGAS) (Homo sapiens, UniProt Q8N884) (assay: hcGAS Kinase-Glo Assay). Details: 40 nM h-cGAS, 100 μM ATP, 100 μM GTP, 25 nM dsDNA, 3 h incubation, read-out: hcGAS potency IC50.
Type: biochemical
Summary of the method: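 Kinase-Glo luminescent read-out of human cGAS activity, following the published Lama et al. (2019) protocol with slightly altered conditions. Inhibition reported as IC50.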

Sequence of human-cGAS (h-cGAS) (Q8N884 whole entry): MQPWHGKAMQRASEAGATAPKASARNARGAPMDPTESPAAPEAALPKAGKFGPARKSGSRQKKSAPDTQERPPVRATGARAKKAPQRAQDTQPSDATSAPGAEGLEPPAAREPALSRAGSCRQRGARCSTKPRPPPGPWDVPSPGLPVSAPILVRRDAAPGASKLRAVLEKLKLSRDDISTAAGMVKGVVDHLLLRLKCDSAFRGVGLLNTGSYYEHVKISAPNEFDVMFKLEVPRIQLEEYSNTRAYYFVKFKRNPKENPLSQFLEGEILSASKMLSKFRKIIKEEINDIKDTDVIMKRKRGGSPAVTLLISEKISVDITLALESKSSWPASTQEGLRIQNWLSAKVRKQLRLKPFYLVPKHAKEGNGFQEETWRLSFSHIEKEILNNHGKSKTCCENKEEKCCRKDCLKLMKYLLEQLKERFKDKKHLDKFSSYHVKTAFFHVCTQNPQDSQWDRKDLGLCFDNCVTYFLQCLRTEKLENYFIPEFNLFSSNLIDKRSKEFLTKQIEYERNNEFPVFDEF

pIC50 | Structure (SMILES)
6.30 to 7.00 | O=C(Nc1nnc(-c2ccccc2F)s1)c1onc2ccccc12 [Compound 26, N-(5-(2-fluorophenyl)-1,3,4-thiadiazol-2-yl)benzo[c]isoxazole-3-carboxamide]
6.30 to 7.00 | CSc1nnc(NC(=O)c2onc3c2ccc2ccccc23)s1 [Compound 220, N-[5-(methylsulfanyl)-1,3,4-thiadiazol-2-yl]naphtho[1,2-c][1,2]oxazole-3-carboxamide]
6.30 to 7.00 | O=C(Nc1nnc(-c2ccccc2Cl)s1)c1onc2ccccc12 [Compound 22, N-(5-(2-chlorophenyl)-1,3,4-thiadiazol-2-yl)benzo[c]isoxazole-3-carboxamide]
≤ 6.00 | O=C(Nc1nnc(-c2cccc(O)c2)s1)c1onc2ccccc12 [Compound 30, N-(5-(3-hydroxyphenyl)-1,3,4-thiadiazol-2-yl)benzo[c]isoxazole-3-carboxamide]
6.00 to 6.30 | CSc1nnc(NC(=O)c2onc3ccc(F)cc23)s1 [Compound 223, 5-fluoro-N-[5-(methylsulfanyl)-1,3,4-thiadiazol-2-yl]-2,1-benzoxazole-3-carboxamide]
6.00 to 6.30 | Cc1nnc(NC(=O)c2onc3c2ccc2cccnc23)s1 [Compound 93, N-(5-methyl-1,3,4-thiadiazol-2-yl)isoxazolo[4,3-h]quinoline-3-carboxamide]
6.30 to 7.00 | CSc1nsc(NC(=O)c2onc3c2ccc2cccnc23)n1 [Compound 11, N-(3-(methylthio)-1,2,4-thiadiazol-5-yl)isoxazolo[4,3-h]quinoline-3-carboxamide]
6.30 to 7.00 | COc1cccc2c(C(=O)Nc3nnc(SC)s3)onc12 [Compound 230, 7-methoxy-N-[5-(methylsulfanyl)-1,3,4-thiadiazol-2-yl]-2,1-benzoxazole-3-carboxamide]
6.30 to 7.00 | CSc1nnc(NC(=O)c2onc3cc(C)ccc23)s1 [Compound 221, 6-methyl-N-[5-(methylsulfanyl)-1,3,4-thiadiazol-2-yl]-2,1-benzoxazole-3-carboxamide]

Further lines, the molecule ahead of its results:

Structure (SMILES) | pIC50
CSc1nnc(NC(=O)c2nnc(N3CCC3c3ccccc3)o2)s1 (centres unmarked) [Compound 74, N-(5-(methylthio)-1,3,4-thiadiazol-2-yl)-5-(2-phenylazetidin-1-yl)-1,3,4-oxadiazole-2-carboxamide] | ≤ 6.00
CSc1nnc(NC(=O)c2onc3ccc(S(=O)(=O)c4ccccc4)cc23)s1 [Compound 164, N-(5-(methylthio)-1,3,4-thiadiazol-2-yl)-5-(phenylsulfonyl)benzo[c]isoxazole-3 carboxamide] | 6.00 to 6.30
O=C(Nc1nnc(-c2ccccc2Cl)s1)c1n[nH]c(=O)[nH]1 [Compound 63, N-(5-(2-chlorophenyl)-1,3,4-thiadiazol-2-yl)-5-oxo-4,5-dihydro-1H-1,2,4-triazole-3-carboxamide] | 6.00 to 6.30
CSc1nnc(NC(=O)c2cc(-c3cncc4ccccc34)cc(=O)o2)s1 [Compound 256, 4-(4-isoquinolyl)-N-(5-methylsulfanyl-1,3,4-thiadiazol-2-yl)-6-oxo-pyran-2-carboxamide] | 6.00 to 6.30
CSc1nnc(NC(=O)c2onc3c2CCc2cnc(C)nc2-3)s1 [Compound 174, 8-Methyl-N-(5-(methylthio)-1,3,4-thiadiazol-2-yl)-4,5-dihydroisoxazolo[4,3-h]quinazoline-3-carboxamide] | ≤ 6.00
COc1cccc(Cc2ccc3noc(C(=O)Nc4nnc(SC)s4)c3c2)c1 [Compound 161, 5-(3-methoxybenzyl)-N-(5-(methylthio)-1,3,4-thiadiazol-2-yl)benzo[c]isoxazole-3-carboxamide] | 6.00 to 6.30
O=C(Nc1nnc(-c2ccccc2Cl)s1)c1ccc(O)nn1 [Compound 56, N-(5-(2-chlorophenyl)-1,3,4-thiadiazol-2-yl)-6-hydroxypyridazine-3-carboxamide] | 6.30 to 7.00
CSc1nnc(NC(=O)c2cc(C3CCC3)no2)s1 [Compound 86, 3-cyclobutyl-N-(5-(methylthio)-1,3,4-thiadiazol-2-yl)isoxazole-5-carboxamide] | 6.00 to 6.30
